Target: T1, MEK2 (Homo sapiens, UniProt P36507, S222E/S226D)
T1 construct: 6-histidine tag (N); made in house; host or cells: Spodoptera frugiperda Sf9 (baculovirus) for MEK2; E. coli for ERK1
Test: MEK2 inhibition assay, fluorescence polarization with IMAP beads (ERK1 / FI-Erktide substrate)
Assay type: biochemical
Details: 4 nM MEK2, 25 nM ERK1, 400 μM ATP, 500 nM FI-Erktide, 1% DMSO, 22 min at room temperature; values given as ranges; read-out: IC50 of Exemplified Compounds Against MEK2
Source text: For MEK2, DNA encoding residues 1-400 (S222E/S226D) of the full-length sequence of the human enzyme may be amplified by PCR and cloned into pFastbac (Invitrogen), which incorporates a 6-histidine tag at the N-terminus. The two mutations, S222E and S226D, may be obtained by quick change PCR. SEQ ID NO: 3 corresponds to residues 1-400 with mutations S222E/S226D, and with the N-terminal 6-histidine tag and SEQ ID NO: 4 is the DNA sequence that was used to encode SEQ ID NO: 3.
Recombinant baculovirus incorporating the MEK1 and MEK2 constructs may be generated by transposition using the Bac-to-Bac system (Invitrogen). High-titer viral stocks may be generated by infection of Spodoptera frugiperda Sf9 cells; the expression of recombinant protein may be carried out by infection of Spodoptera frugiperda Sf9 (Invitrogen) in 5L Wave Bioreactors (Wave Biotech).
Recombinant protein may be isolated from cellular extracts by passage over ProBond resin (Invitrogen). Partially purified extracts of all MEK1 may then be further purified by high pressure liquid chromatography over a SEC2000 gel filtration resin. The purity of MEK1 and MEK2 proteins may be determined on denaturing SDS-PAGE gel. Purified MEK1 and MEK2 may then be concentrated to a final concentration of 3.4 mg/ml and 5.4 mg/ml, respectively. The proteins may be either stored at −78° C. in a buffer containing 50 mM TRIS-HCl pH 7.6, 250 mM NaCl, 0.1 mM EDTA and 0.125 mM TCEP or at −20° C. in the presence of glycerol (final concentration of glycerol at 50%).
The inhibitory properties of compounds relative to MEK1 or MEK2 may be determined using a black 384-well-plate format under the following reaction conditions: 50 mM HEPES pH 7.3, 10 mM NaCl, 10 mM MgCl2, 0.01% Brij35, 1 nM MEK1 or 4 nM MEK2, 25 nM ERK1, 400 μM ATP, 500 nM IPTTPITTYFFFK-5FAM-COOH (FI-Erktide), and 1% DMSO. Reaction product is determined quantitatively by fluorescent polarization using progressive IMAP beads from Molecular Devices.
The assay reaction may be initiated as follows: 2 μl of the mixture of 1.5 μM FI-Erktide and 75 nM ERK with 2 μl of inhibitor (2 fold serial dilutions for 11 data points for each inhibitor) containing 3% DMSO were added to each well of the plate, followed by the addition of 2 μl of the mixture of 3 nM MEK1 or 12 nM MEK2 and 1200 μM ATP to initiate the reaction (final enzyme concentration was 1 nM for MEK1 or 4 nM for MEK2). The reaction mixture may then be incubated at room temperature for 22 min, and quenched and developed by addition of 20 μl of 1:200 dilution of progressive IMAP beads (Molecular Devices) in 80% buffer A, 20% bufferB and 0.003% Tween 20. Fluorescence polarization of the resulting reaction mixtures may be measured after a 1 hour incubation at room temperature.
IC50 values may be calculated by non-linear curve fitting of the compound concentrations and fluorescence polarization signal to the standard IC50 equation.

T1 sequence (P36507 with tags, fused parts or gaps S222E/S226D): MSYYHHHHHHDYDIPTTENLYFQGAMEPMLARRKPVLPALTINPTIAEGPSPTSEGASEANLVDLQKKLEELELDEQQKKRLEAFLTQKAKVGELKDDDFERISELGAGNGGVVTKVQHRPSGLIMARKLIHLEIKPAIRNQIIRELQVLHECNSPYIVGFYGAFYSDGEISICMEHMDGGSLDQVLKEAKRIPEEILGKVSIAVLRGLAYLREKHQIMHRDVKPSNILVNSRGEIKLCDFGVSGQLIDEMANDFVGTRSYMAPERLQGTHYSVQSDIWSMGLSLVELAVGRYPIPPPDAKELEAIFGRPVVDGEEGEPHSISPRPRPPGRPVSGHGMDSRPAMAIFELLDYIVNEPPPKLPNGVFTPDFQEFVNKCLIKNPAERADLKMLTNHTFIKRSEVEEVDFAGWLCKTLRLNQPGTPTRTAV

IC50	SMILES
≤ 0.5 µM	Cc1cc(I)ccc1Nc1c(C(=O)NOCCO)c(=O)n(C)c(=O)n1C [Example 35, N-(2-Hydroxyethoxy)-6-(4-iodo-2-methylphenylamino)-1,3-dimethyl-2,4-dioxo-1,2,3,4-tetrahydropyrimidine-5-carboxamide]
0.501 to 2.5 µM	Cn1c(Nc2ccc(I)c(F)c2F)c(C(=O)NOC[C@H](O)CO)c(=O)n(C)c1=O [Example 36, (R)-6-(2,3-Difluoro-4-iodophenylamino)-N-(2,3-dihydroxypropoxy)-1,3-dimethyl-2,4-dioxo-1,2,3,4-tetrahydropyrimidine-5-carboxamide]
≤ 0.5 µM	Cc1cc(I)ccc1Nc1c(C(=O)NOC[C@H](O)CO)c(=O)n(C)c(=O)n1C [Example 38, (R)-N-(2,3-Dihydroxypropoxy)-6-(4-iodo-2-methylphenylamino)-1,3-dimethyl-2,4-dioxo-1,2,3,4-tetrahydropyrimidine-5-carboxamide]
≤ 0.5 µM	Cn1c(Nc2ccc(I)cc2Cl)c(C(=O)NOC[C@@H](O)CO)c(=O)n(C)c1=O [Example 39, (S)-6-(2-chloro-4-iodophenylamino)-N-(2,3-dihydroxypropoxy)-1,3-dimethyl-2,4-dioxo-1,2,3,4-tetrahydropyrimidine-5-carboxamide]
> 25 µM	Cn1c(Nc2cc(F)c(I)cc2F)c(C(=O)NOC[C@H](O)CO)c(=O)n(C)c1=O [Example 40, (R)-6-(2,5-Difluoro-4-iodophenylamino)-N-(2,3-dihydroxypropoxy)-1,3-dimethyl-2,4-dioxo-1,2,3,4-tetrahydropyrimidine-5-carboxamide]
0.501 to 2.5 µM	Cn1c(=O)c(C(=O)NOC[C@H](O)CO)c(Nc2ccc(I)cc2F)n(CF)c1=O [Example 54, (R)-N-(2,3-Dihydroxypropoxy)-6-(2-fluoro-4-iodophenylamino)-1-(fluoromethyl)-3-methyl-2,4-dioxo-1,2,3,4-tetrahydropyrimidine-5-carboxamide]

The next lines start with the molecule.

SMILES	IC50
Cn1c(Nc2ccc(I)cc2F)c(C(=O)NOC[C@@H](O)CO)c(=O)n(C)c1=O [Example 37, (S)-N-(2,3-Dihydroxypropoxy)-6-(2-fluoro-4-iodophenylamino)-1,3-dimethyl-2,4-dioxo-1,2,3,4-tetrahydropyrimidine-5-carboxamide]	≤ 0.5 µM
CCc1cc(Nc2c(C(=O)NOCCO)c(=O)n(C)c(=O)n2C)ccc1I [Example 41, 6-(3-Ethyl-4-iodophenylamino)-N-(2-hydroxyethoxy)-1,3-dimethyl-2,4-dioxo-1,2,3,4-tetrahydropyrimidine-5-carboxamide]	> 25 µM
Cn1c(Nc2ccc(I)cc2F)c(C(=O)NCCN)c(=O)n(C)c1=O [Example 42, N-(2-Aminoethyl)-6-(2-fluoro-4-iodophenylamino)-1,3-dimethyl-2,4-dioxo-1,2,3,4-tetrahydropyrimidine-5-carboxamide]	0.501 to 2.5 µM
Cn1c(Nc2ccc(I)cc2F)c(C(=O)N2CCNCC2)c(=O)n(C)c1=O [Example 43, 6-(2-Fluoro-4-iodophenylamino)-1,3-dimethyl-5-(piperazine-1-carbonyl)pyrimidine-2,4(1H,3H)-dione]	> 25 µM
Cn1c(Nc2ccc(I)cc2F)c(C(=O)N2CCN(CCO)CC2)c(=O)n(C)c1=O [Example 44, 6-(2-Fluoro-4-iodophenylamino)-5-(4-(2-hydroxyethyl)piperazine-1-carbonyl)-1,3-dimethylpyrimidine-2,4(1H,3H)-dione]	> 25 µM
CN(C)NC(=O)c1c(Nc2ccc(I)cc2F)n(C)c(=O)n(C)c1=O [Example 45, 6-(2-Fluoro-4-iodophenylamino)-N′,N′,1,3-tetramethyl-2,4-dioxo-1,2,3,4-tetrahydropyrimidine-5-carbohydrazide]	0.501 to 2.5 µM
CCn1c(=O)c(C(=O)NOCCO)c(Nc2ccc(I)cc2F)n(C)c1=O [Example 48, 3-Ethyl-6-(2-fluoro-4-iodophenylamino)-N-(2-hydroxyethoxy)-1-methyl-2,4-dioxo-1,2,3,4-tetrahydropyrimidine-5-carboxamide]	> 25 µM
CCn1c(Nc2ccc(I)cc2F)c(C(=O)NOCCO)c(=O)n(C)c1=O [Example 51, 1-Ethyl-6-(2-fluoro-4-iodophenylamino)-N-(2-hydroxyethoxy)-3-methyl-2,4-dioxo-1,2,3,4-tetrahydropyrimidine-5-carboxamide]	> 25 µM
Cn1c(Nc2ccc(I)cc2F)c(C(=O)NCCO)c(=O)n(C)c1=O [Example 55, 6-(2-Fluoro-4-iodophenylamino)-N-(2-hydroxyethyl)-1,3-dimethyl-2,4-dioxo-1,2,3,4-tetrahydropyrimidine-5-carboxamide]	0.501 to 2.5 µM
Cn1c(Nc2ccc(I)cc2F)c(C(=O)NOC[C@H](O)CCO)c(=O)n(C)c1=O [Example 56, 6-(2-Fluoro-4-iodo-phenylamino)-1,3-dimethyl-2,4-dioxo-1,2,3,4-tetrahydropyrimidine-5-carboxylic acid ((R)-2,4-dihydroxy-butoxy)-amide]	0.501 to 2.5 µM
Cn1c(Nc2ccc(I)cc2F)c(C(=O)NOC[C@@H](O)CCO)c(=O)n(C)c1=O [Example 57, 6-(2-Fluoro-4-iodo-phenylamino)-1,3-dimethyl-2,4-dioxo-1,2,3,4-tetrahydropyrimidine-5-carboxylic acid ((S)-2,4-dihydroxy-butoxy)-amide]	≤ 0.5 µM
Cn1c(Nc2ccc(I)cc2F)c(C(=O)N2CC(O)C2)c(=O)n(C)c1=O [Example 58, 6-(2-Fluoro-4-iodo-phenylamino)-5-(3-hydroxy-azetidine-1-carbonyl)-1,3-dimethyl-1H-pyrimidine-2,4-dione]	2.5 to 25 µM
